{"source": "patent US9162979B2", "about": "“1,5-Diary1-2-alkylpyrrole-3-substituted nitro esters, selective COX-2 inhibitors and nitric oxide donors” (ROTTAPHARM BIOTECH S.R.L., priority 2010, dated 2015)", "key": {"COX-2": {"molecular_target": "COX-2 (Mus musculus (Mouse), UniProt Q05769)", "sequence (Q05769 18-604)": "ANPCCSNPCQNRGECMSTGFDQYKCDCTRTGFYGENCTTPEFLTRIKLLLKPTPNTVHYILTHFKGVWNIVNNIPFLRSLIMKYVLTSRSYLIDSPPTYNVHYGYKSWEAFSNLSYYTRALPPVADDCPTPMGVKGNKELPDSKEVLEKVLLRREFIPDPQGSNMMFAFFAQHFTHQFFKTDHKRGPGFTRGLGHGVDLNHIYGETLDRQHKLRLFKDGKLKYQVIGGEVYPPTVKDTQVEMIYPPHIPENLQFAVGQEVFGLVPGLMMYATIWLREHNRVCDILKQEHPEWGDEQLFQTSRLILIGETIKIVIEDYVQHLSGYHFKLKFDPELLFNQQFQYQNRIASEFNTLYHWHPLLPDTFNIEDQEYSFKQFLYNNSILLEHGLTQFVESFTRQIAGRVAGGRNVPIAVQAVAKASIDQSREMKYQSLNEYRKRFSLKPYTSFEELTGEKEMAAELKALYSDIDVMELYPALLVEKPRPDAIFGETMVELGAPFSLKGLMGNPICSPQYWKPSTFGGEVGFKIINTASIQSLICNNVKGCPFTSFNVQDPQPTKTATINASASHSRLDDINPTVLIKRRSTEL", "experiment": "Evaluation of COX-2 activity: PGE2 production in LPS-stimulated J774 cells", "format": "cell-based, murine", "settings": "J774 cells stimulated 24 hours with LPS 10 μg/mL; PGE2 by radio-immunological assay; read-out: Cyclooxygenase inhibition COX-2 IC50", "experimental": "The murine monocyte/macrophage cell line J774 is grown in Dulbecco's modified Eagle's medium (DMEM), enriched with glutamine (2 mM), HEPES (25 mM), penicillin (100 u/mL), streptomycin (100 μg/mL), 10% of fetal bovine serum (FBS) and 1.2% of sodium pyruvate. […] Just before the experiments, the culture medium is replaced with fresh medium without FBS to avoid interference during the radio-immunological phase and the cells are stimulated as described below.\nThe supernatants are collected for evaluating, by means of radio-immunological assays, the amount of PGE2 produced.\nIn each group of experiments, wells were used in triplicate for the different treatment conditions. […] The data were evaluated using the sigmoidal dose-response equation (variable slope) (GraphPad software). IC50 and the 95% precision intervals were calculated with the program GraphPad Instat (GraphPad software)."}, "[1]": {"test_system": "isolated rings of thoracic aorta", "experiment": "Evaluation of release of NO: vasorelaxing activity on endothelium-denuded aortic rings contracted with KCl", "design": "species or system rat", "settings": "Rattus norvegicus; relative to contractile tone induced by 20 mM KCl; 1 nM-10 μM; read-out: NO release properties Emax (maximum vasorelaxing effect)", "experimental": "The activity of the compounds was evaluated on isolated rings of thoracic aorta of normotensive male Wistar rats (250-350 g). After light anaesthesia with ether, the rats were sacrificed by cervical dislocation and exsanguination. The aortas were immediately excised, extraneous tissues were removed and the endothelial layer was removed by gently rubbing the surface with a hypodermic needle. Rings of aorta with a width of 5 mm were suspended, with a preload of 2 g, in 20-ml organ baths, containing a solution of “Tyrode” (composition of the saline solution in mM: NaCl 136.8; KCl 2.95; CaCl2 1.80; MgSO4 1.05; NaH2PO4 0.41; NaHCO3 11.9; glucose 5.5), thermostatically controlled at 37° C. and kept in an atmosphere of O2 (95%) and CO2 (5%). […] were recorded by means of an isometric transducer (FTO3 Erba), connected to a microdynamometer (Buxco Electronics).\n60 minutes after preparation, removal of the endothelium was confirmed by acetylcholine (ACH) (10 μM) treatment of the vascular rings pre-contracted with KCl (20 mM). Relaxation of less than 10% of the contraction induced by KCl was considered as representative of acceptable removal of the endothelial layer, whereas organs displaying relaxation ≧10% were discarded. 40 minutes after confirmation of complete removal of the endothelium, the aortas were contracted by treatment with a single dose of KCl (20 mM) and after the contraction reached a stable plateau, increasing cumulative concentrations (with progressive increments of 3 times) of the test compounds (1 nM-10 μM) were added. It was found from preliminary experiments that the contraction induced by KCl (20 mM) remained stable in a tonic state for at least 40 minutes. The same experiments were performed in the presence of a well-known inhibitor of guanylate cyclase: ODQ 1 μM, which was incubated in aorta preparations after confirmation of removal of the endothelium.\nAnalysis of the results. The vasorelaxing activity was evaluated as a percentage (%) relative to the contractile tone induced by 20 mM KCl. The pharmacodynamic efficacy parameter (Emax) corresponds to the maximum vasorelaxing effect induced by the molecule tested, expressed as percentage relative to the contractile tone induced by 20 mM KCl. When the limit concentration of 10 μM (the highest concentration administered) of the test compounds has not reached the maximum effect, the efficacy parameter (Emax) corresponds to the vasorelaxing effect induced by the limit concentration (expressed as percentage relative to the contractile tone induced by 20 mM KCl). The pharmacodynamic parameter of potency of the compounds was expressed as pIC50 calculated as the negative logarithm of the molar concentration of test compound that reduces the contractile tone induced by 20 mM KCl by half. […] The parameters of efficacy and potency were expressed as mean±standard error, for 5-10 experiments. The experimental data were analysed by the program GraphPad Prism 3.0."}}, "note": "Counter-ions that a name gives are not always drawn."}
{"smiles": "Cc1c(CCOCCO[N+](=O)[O-])cc(-c2ccc(S(C)(=O)=O)cc2)n1-c1cccc(F)c1", "note": "(as salt: nitrate) [Example 38, 2-[2-[2-(1-(3-Fluorophenyl)-2-methyl-5-(4-methylsulphonylphenyl)-1H-pyrrol-3-yl]ethoxy]ethyl Nitrate]", "values": [{"measurement": "melting point", "result": "94 to 97", "unit": "°C"}]}
{"smiles": "Cc1c(CCOCCO[N+](=O)[O-])cc(-c2ccc(S(C)(=O)=O)cc2)n1-c1ccc(F)c(F)c1", "note": "(as salt: nitrate) [Example 39, 2-[2-[2-(1-(3,4-Difluorophenyl)-2-methyl-5-(4-methylsulphonylphenyl)-1H-pyrrol-3-yl]ethoxy]ethyl Nitrate]", "values": [{"measurement": "melting point", "result": "93 to 96", "unit": "°C"}]}
{"smiles": "Cc1c(CCOCCCO[N+](=O)[O-])cc(-c2ccc(S(C)(=O)=O)cc2)n1-c1ccccc1", "note": "(as salt: nitrate) [Example 40, 3-[2-[2-(1-Phenyl-2-methyl-5-(4-methylsulphonylphenyl)-1H-pyrrol-3-yl)ethoxy]propyl Nitrate]", "values": [{"measurement": "melting point", "result": "131 to 133", "unit": "°C"}]}
{"smiles": "Cc1c(CCOCCCO[N+](=O)[O-])cc(-c2ccc(S(C)(=O)=O)cc2)n1-c1ccc(F)cc1", "note": "(as salt: nitrate) [Example 41, 3-[2-[2-(1-(4-Fluorophenyl)-2-methyl-5-(4-methylsulphonylphenyl)-1H-pyrrol-3-yl)]ethoxy]propyl Nitrate]", "values": [{"measurement": "melting point", "result": "114 to 116", "unit": "°C"}]}
{"smiles": "Cc1c(CCOCCCO[N+](=O)[O-])cc(-c2ccc(S(C)(=O)=O)cc2)n1-c1cccc(F)c1", "note": "(as salt: nitrate) [Example 42, 3-[2-(1-(3-Fluorophenyl)-2-methyl-5-(4-methylsulphonylphenyl)-1H-pyrrol-3-yl)ethoxy]propyl Nitrate]", "values": [{"measurement": "melting point", "result": "111 to 113", "unit": "°C"}]}
{"smiles": "Cc1c(C(N)C(=O)OCCO)cc(-c2ccc(S(C)(=O)=O)cc2)n1-c1ccc(F)cc1", "note": "(racemic) [Example 16-II, (R,S)-2-(Hydroxy)ethyl-[2-amino-2-[1-(4-fluorophenyl)-2-methyl-5-(4-methylsulphonylphenyl)-pyrrol-3-yl]]-acetate]", "values": [{"measurement": "melting point", "result": 102, "unit": "°C"}]}
{"smiles": "Cc1c(C(N)C(=O)OCCO)cc(-c2ccc(S(C)(=O)=O)cc2)n1-c1cccc(F)c1", "note": "(racemic) [Example 17-II, (R,S)-2-(Hydroxy)ethyl-[2-amino-2-[1-(3-fluorophenyl)-2-methyl-5-(4-methylsulphonylphenyl)-1H-pyrrol-3-yl]]-acetate]", "values": [{"measurement": "melting point", "result": 102, "unit": "°C"}]}
{"smiles": "Cc1c(C(N)C(=O)OCCCO[N+](=O)[O-])cc(-c2ccc(S(C)(=O)=O)cc2)n1-c1cccc(F)c1", "note": "(racemic) [Example 19, (R,S)-3-(Nitrooxy)propyl-[2-amino-2-[1-(3-fluorophenyl)-2-methyl-5-(4-methylsulphonylphenyl)-1H-pyrrol-3-yl]]-acetate]", "values": [{"measurement": "melting point", "result": 117, "unit": "°C"}]}
{"smiles": "Cc1c(C(N)C(=O)OCCCCO[N+](=O)[O-])cc(-c2ccc(S(C)(=O)=O)cc2)n1-c1cccc(F)c1", "note": "(racemic) [Example 21, (R,S)-4-(Nitrooxy)butyl-[2-amino-2-[1-(3-fluorophenyl)-2-methyl-5-(4-methylsulphonylphenyl)-1H-pyrrol-3-yl]]-acetate]", "values": [{"measurement": "melting point", "result": 110, "unit": "°C"}]}
{"smiles": "Cc1c(CC(=O)OCCO)cc(-c2ccc(S(C)(=O)=O)cc2)n1-c1ccc(F)cc1", "note": "[Example 2-II, 2-Hydroxyethyl-[2-(1-(4-fluorophenyl)-2-methyl-5-(4-methylsulphonylphenyl)-1H-pyrrol-3-yl)]acetate]", "values": [{"measurement": "melting point", "result": "129 to 131", "unit": "°C"}, {"measurement": "IC50", "setting": "COX-2", "result": 89, "unit": "nM"}]}
{"smiles": "Cc1c(CC(=O)OCCO)cc(-c2ccc(S(C)(=O)=O)cc2)n1-c1cccc(F)c1", "note": "[Example 3-II]", "values": [{"measurement": "melting point", "result": 115, "unit": "°C"}, {"measurement": "IC50", "setting": "COX-2", "result": 85, "unit": "nM"}]}
{"smiles": "COc1ccc(-n2c(-c3ccc(S(C)(=O)=O)cc3)cc(CC(=O)OCCO)c2C)cc1", "note": "[Example 4-II, 2-(Hydroxy)ethyl-[1-(4-methoxyphenyl)-2-methyl-5-(4-methylsulphonylphenyl)-1H-pyrrol-3-yl]-acetate]", "values": [{"measurement": "melting point", "result": 105, "unit": "°C"}, {"measurement": "IC50", "setting": "COX-2", "result": 1100, "unit": "nM"}]}
{"smiles": "Cc1c(CC(=O)OCCCO[N+](=O)[O-])cc(-c2ccc(S(C)(=O)=O)cc2)n1-c1ccccc1", "note": "[Example 6]", "values": [{"measurement": "melting point", "result": "116 to 118", "unit": "°C"}]}
{"smiles": "Cc1c(CC(=O)OCCCO[N+](=O)[O-])cc(-c2ccc(S(C)(=O)=O)cc2)n1-c1ccc(F)cc1", "note": "[Example 7, 3-(Nitrooxy)propyl 2-[1-(4-fluorophenyl)-2-methyl-5-(4-methylsulphonylphenyl)-1H-pyrrol-3-yl]acetate]", "values": [{"measurement": "melting point", "result": "126 to 128", "unit": "°C"}]}
{"smiles": "Cc1c(CC(=O)OCCCCO[N+](=O)[O-])cc(-c2ccc(S(C)(=O)=O)cc2)n1-c1ccc(F)cc1", "note": "[Example 11, 4-(Nitrooxy)butyl-2-[1-(4-fluorophenyl)-2-methyl-5-(4-methylsulphonylphenyl)-1H-pyrrol-3-yl]acetate]", "values": [{"measurement": "Emax", "setting": "[1]", "result": "40 ± 8", "unit": "%"}, {"measurement": "melting point", "result": "102 to 104", "unit": "°C"}]}
{"smiles": "COc1ccc(-n2c(-c3ccc(S(C)(=O)=O)cc3)cc(CC(=O)OCCCCO[N+](=O)[O-])c2C)cc1", "note": "[Example 13, 4-(Nitrooxy)butyl-2-[1-(4-methoxyphenyl)-2-methyl-5-(4-methylsulphonylphenyl)-1H-pyrrol-3-yl]acetate]", "values": [{"measurement": "melting point", "result": 109, "unit": "°C"}, {"measurement": "IC50", "setting": "COX-2", "result": 550, "unit": "nM"}]}
{"smiles": "Cc1c(CC(=O)NCCO)cc(-c2ccc(S(C)(=O)=O)cc2)n1-c1ccc(F)cc1", "note": "[Example 23-II, N-[(2-Hydroxy)ethyl]-2-[1-(4-fluorophenyl)-2-methyl-5-(4-methylsulphonylphenyl)-1H-pyrrol-3-yl]acetamide]", "values": [{"measurement": "melting point", "result": 99, "unit": "°C"}, {"measurement": "IC50", "setting": "COX-2", "result": 300, "unit": "nM"}]}
{"smiles": "Cc1c(CC(=O)NCCCO[N+](=O)[O-])cc(-c2ccc(S(C)(=O)=O)cc2)n1-c1ccc(F)cc1", "note": "[Example 26, N-[(3-Nitroxy)propyl]-2-[1-(4-fluorophenyl)-2-methyl-5-(4-methylsulphonylphenyl)-1H-pyrrol-3-yl]acetamide]", "values": [{"measurement": "melting point", "result": 127, "unit": "°C"}]}
{"smiles": "Cc1c(CC(=O)NCCCO)cc(-c2ccc(S(C)(=O)=O)cc2)n1-c1ccc(F)cc1", "note": "[Example 26-II, N-[(3-Hydroxy)propyl]-2-[1-(4-fluorophenyl)-2-methyl-5-(4-methylsulphonylphenyl)-1H-pyrrol-3-yl]acetamide]", "values": [{"measurement": "melting point", "result": 105, "unit": "°C"}, {"measurement": "IC50", "setting": "COX-2", "result": 68, "unit": "nM"}]}
{"smiles": "Cc1c(CC(=O)NCCCO[N+](=O)[O-])cc(-c2ccc(S(C)(=O)=O)cc2)n1-c1cccc(F)c1", "note": "[Example 27, N-[(3-Nitroxy)propyl]-2-[1-(3-fluorophenyl)-2-methyl-5-(4-methylsulphonylphenyl)-1H-pyrrol-3-yl]acetamide]", "values": [{"measurement": "melting point", "result": 125, "unit": "°C"}]}
{"smiles": "Cc1c(CC(=O)NCCCO)cc(-c2ccc(S(C)(=O)=O)cc2)n1-c1cccc(F)c1", "note": "[Example 27-II, N-[(3-Hydroxy)propyl]-2-[1-(3-fluorophenyl)-2-methyl-5-(4-methylsulphonylphenyl)-1H-pyrrol-3-yl]acetamide]", "values": [{"measurement": "melting point", "result": 102, "unit": "°C"}, {"measurement": "IC50", "setting": "COX-2", "result": 14, "unit": "nM"}]}
{"smiles": "Cc1c(CCOCCCO)cc(-c2ccc(S(C)(=O)=O)cc2)n1-c1ccc(F)cc1", "note": "[Example 41-II, 3-[2-[2-(1-(4-Fluorophenyl)-2-methyl-5-(4-methylsulphonylphenyl)-1H-pyrrol-3-yl)]ethoxy]propanol]", "values": [{"measurement": "melting point", "result": "100 to 102", "unit": "°C"}, {"measurement": "IC50", "setting": "COX-2", "result": 940, "unit": "nM"}]}
